Reference: PubChem BioAssay (NCI)
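GI50 = concentration required for 50% inhibition of growth. TGI marks complete inhibition of growth.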

How the values were obtained:
Experiment in all cases: DTP human tumour cell line panel, 384-well format
[1] = tested on: 786-0 renal
[2] = tested on: SK-MEL-28 melanoma
[3] = tested on: MCF7 breast
[4] = tested on: A549 NSCLC
[5] = tested on: COLO 205 colon
[6] = tested on: EKVX NSCLC
[7] = tested on: MOLT-4 leukemia
[8] = tested on: HS 578T breast
[9] = tested on: LOX IMVI melanoma
[10] = tested on: OVCAR-3 ovarian
[11] = tested on: HCT-15 colon
[12] = tested on: MALME-3M melanoma
[13] = tested on: SF-295 CNS

Compound: CC(C)(O)CNc1nc(Nc2ccnc(C(F)(F)F)c2)nc(-c2cccc(C(F)(F)F)n2)n1
- GI50 [1]: 17.4 µM
- TGI [1]: 37.6 µM
- GI50 [2]: 16.9 µM
- TGI [2]: 31 µM
- GI50 [3]: 15.9 µM
- TGI [3]: 30.5 µM
- GI50 [4]: 17.3 µM
- TGI [4]: 35.4 µM
- GI50 [5]: 18.5 µM
- TGI [5]: 34.8 µM
- GI50 [6]: 19 µM
- TGI [6]: 38.5 µM
- GI50 [7]: 13.7 µM
- TGI [7]: 26.8 µM
- GI50 [8]: 14.6 µM
- TGI [8]: 29.5 µM
- GI50 [9]: 10.7 µM
- TGI [9]: 25.1 µM
- GI50 [10]: 17.6 µM
- TGI [10]: 32.9 µM
- GI50 [11]: 13.5 µM
- TGI [11]: 28.1 µM
- GI50 [12]: 18.4 µM
- TGI [12]: 33.9 µM
- GI50 [13]: 16 µM
- TGI [13]: 29.8 µM
